Data published in patent US20220065865A1, “METHODS OF TREATMENT AND DIAGNOSIS OF TUMOURS” (UEA ENTERPRISES LIMITED, priority 2018, published 2022).

What was measured:
RUNX2 = assay: qPCR transcriptional profiling of transfected tumour spheres: RUNX2; type: cell-based, human; conditions: 50 nM mimic, pooled RNA of 6 replicates, normalised to ACTB, compared to control tissue
Protocol: (§1) Once tumour spheres had formed, tRF mimics (RNA), tRF inhibitors (LNA), miRNA mimics (LNA) and miRNA inhibitors (LNA) (Exiqon) were transfected using Lipofectamine 3000 (Thermo Fisher Scientific) in reduced serum media (Thermo Fisher Scientific) for a final concentration of 50 nM consisting of equal parts of each mimic or inhibitor (sequences in Table 1 above). Confirmation of cell entry at 50 nM concentration was determined after performing the transfection with FAM labelled sequences. After 6 hours of incubation reduced serum media containing mimics or inhibitors was replaced with fresh growth media. Tumour spheres were subjected to histology, fluorescence microscopy and transcriptional profiling 48 hours later. Transfections were performed in triplicate in 3 independent experiments.
(§2) We used qPCR as previously described (Fricke, C., Green, D., Smith, D., Dalmay, T. & Chapman, T. MicroRNAs influence reproductive responses by females to male sex peptide in Drosophila melanogaster. Genetics 198, 1603-19 (2014), the contents of which are incorporated herein by reference). Due to a limited amount of RNA, qPCR was performed on pools of control tissue, low grade, intermediate grade and high grade tumours. We also extracted and pooled RNA from 6 replicates of tumour spheres treated with a tRF-Gly-TCC mimic. […]

YBX1 [1] = assay: qPCR transcriptional profiling of transfected tumour spheres: YBX1; type: cell-based, human; conditions: 50 nM mimic, pooled RNA of 6 replicates, normalised to ACTB
Protocol: as §1, §2

YBX1 [2] = target: YBX1 (Homo sapiens, UniProt P67809); conditions: Goodarzi et al., Cell 161, 790-802 (2015); cited from earlier work
Chain of YBX1 (Homo sapiens, UniProt P67809) (P67809 whole entry): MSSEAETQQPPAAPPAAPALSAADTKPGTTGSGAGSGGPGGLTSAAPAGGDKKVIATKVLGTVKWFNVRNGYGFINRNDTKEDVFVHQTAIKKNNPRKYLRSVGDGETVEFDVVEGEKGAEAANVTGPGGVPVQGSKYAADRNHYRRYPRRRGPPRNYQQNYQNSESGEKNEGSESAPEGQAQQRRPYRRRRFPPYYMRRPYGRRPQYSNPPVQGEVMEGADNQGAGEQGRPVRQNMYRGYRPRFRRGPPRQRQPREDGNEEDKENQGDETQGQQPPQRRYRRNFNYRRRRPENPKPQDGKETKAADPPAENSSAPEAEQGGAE

[3] = tested on: chondrosarcoma tumour spheres (SW1353); assay: Tumour sphere assay with LNA and RNA transfection, histology and fluorescence microscopy; type: cell-based, human; conditions: 50 nM, 48 hours after transfection
Protocol: (§3) SW1353 (chondrosarcoma) cells were cultured in 1:1 DMEM/F-12 Supplement (Thermo Fisher Scientific) containing 10% (volume/volume) fetal bovine serum (Sigma Aldrich). Cells were fed with culture medium every other day and maintained at 37° C. in a […] atmosphere of 5% CO2. Cells were obtained from ATCC and authenticated by STR profiling. Cells were regularly monitored for Mycoplasma infection by PCR. Phenotypic checks for interleukin 1 response ensured cell phenotype was maintained.
Tumour spheres were constructed as previously described (Greco, K. V. et al. High density micromass cultures of a human chondrocyte cell line: a reliable assay system to reveal the modulatory functions of pharmacological agents. Biochem Pharmacol 82, 1919-29 (2011), the contents of which are incorporated herein by reference). Briefly, 80% confluent monolayer cell cultures were released by trypsin-EDTA and resuspended in growth medium at a density of 4.1×10^4 cells/mL. Tumour spheres were achieved by pipetting 20 μL of cell suspension into individual wells of 24 well plates. […]
as §1, with “After 6 hours of incubation reduced serum media containing mimics or inhibitors was replaced with fresh growth media.” left out, “Transfections were performed in triplicate in 3 independent experiments.” left out
Tumour spheres were fixed in 3.7% formaldehyde and treated with 0.2% Triton-X 100. […] DAPI fluorescence was excited at 365 nm and emission collected between 420 and 470 nm. Texas Red-X Phalloidin fluorescence was excited at 558 nm and emission collected through a 615 nm LP filter. Nuclear DAPI staining was segmented with the number and size of the nuclei quantified using ImageJ.

SOX9 = assay: qPCR transcriptional profiling of transfected tumour spheres: SOX9; type: cell-based, human; conditions: 50 nM mimic, pooled RNA of 6 replicates, normalised to ACTB, compared to control tissue
Protocol: as §1, §2

HDAC4 = assay: qPCR transcriptional profiling of transfected tumour spheres: HDAC4; type: cell-based, human; conditions: 50 nM mimic, pooled RNA of 6 replicates, normalised to ACTB, compared to high grade tumours
Protocol: as §1, §2

PTHLH = assay: qPCR transcriptional profiling of transfected tumour spheres: PTHLH; type: cell-based, human; conditions: 50 nM mimic, pooled RNA of 6 replicates, normalised to ACTB
Protocol: as §1, §2

ANG = assay: qPCR transcriptional profiling of transfected tumour spheres: ANG; type: cell-based, human; conditions: 50 nM mimic, pooled RNA of 6 replicates, normalised to ACTB
Protocol: as §1, §2

IHH = assay: qPCR transcriptional profiling of transfected tumour spheres: IHH; type: cell-based, human; conditions: 50 nM mimic, pooled RNA of 6 replicates, normalised to ACTB
Protocol: as §1, §2

TP53 = assay: qPCR transcriptional profiling of transfected tumour spheres: TP53; type: cell-based, human; conditions: 50 nM mimic, pooled RNA of 6 replicates, normalised to ACTB, compared to control tissues
Protocol: as §1, §2

[4] = tested on: chondrosarcoma tumour spheres (SW1353); assay: Small molecule treatment of chondrosarcoma tumour spheres, nuclei counted by DAPI staining; type: cell-based, human; conditions: bone 3D tumour spheres; for cancer cell number in comparison with Control 1: 72 hours, Control 1 = 0.1% DMSO
Protocol: as §3
For the experiment reported in FIG. 8(b) the culture medium additionally contained 1% (v/v) penicillin streptomycin.
Tumour spheres were constructed as previously described (Greco, K. V. et al. High density micromass cultures of a human chondrocyte cell line: a reliable assay system to reveal the modulatory functions of pharmacological agents. Biochem Pharmacol 82, 1919-29 (2011), the contents of which are incorporated herein by reference). Briefly, 80% confluent monolayer cell cultures were released by trypsin-EDTA and resuspended in growth medium at a density of 4.1×10^4 cells/mL. Tumour spheres were achieved by pipetting 20 μL of cell suspension into individual wells of 24 well plates. Following a 3 hour intermolecular cohesion period 500 μL of growth medium was gently added. Cultures formed three dimensional spheres over the next 24 hours.
Growth media on chondrosarcoma tumour spheres was replaced with fresh media containing 0.1% DMSO (control 1), fresh media containing 0.2% DMSO (control 2), fresh media containing 50 μM small molecule 3-(N-(3,4-dichlorophenyl)carbamoyl)-5-norbornene-2-carboxylic acid, also named 3-{[(3,4-dichlorophenyl)amino]carbonyl}bicyclo[2.2.1]hept-5-ene-2-carboxylic acid, known as CADD522, fresh media containing 100 μM small molecule (CADD522). […] DAPI fluorescence was excited at 365 nm and emission collected between 420 and 470 nm. Nuclear DAPI staining was segmented with the number of the nuclei quantified using ImageJ. […] Statistical significance ([…]) was calculated using an unpaired t test with Prism 6.

Compound	RUNX2 mean relative expression (RUNX2)	YBX1 mean relative expression (YBX1 [1])	binding to YBX1 (YBX1 [2])	decrease in nuclear area compared to untreated tumour spheres [3]	phenotypic effect (nuclear and F-actin histology, inverted microscopy) [3]	nuclear area of tumour spheres ([3]; n=47 nuclei, untreated 488±12.4 μm^2 (n=230)) [μm^2]	SOX9 mean relative expression (SOX9)	HDAC4 mean relative expression (HDAC4)	PTHLP expression (PTHLH)	ANG mean relative expression (ANG)	IHH mean relative expression (IHH)	TP53 mean relative expression (TP53)	cancer cell number in comparison with Control 1 ([4]; 50 μM)	cancer cell number in comparison with Control 1 ([4]; 100 μM)	cancer cell number compared to controls ([4]; two biological replicate controls, unpaired t test)
TRF-Gly-TCC: endogenous tRNA derived fragment containing a SCUBYC sequence motif (GCGUUGGUGGUAUAGUGGUGAGCAUAGCUGCC; listed as RNA, chemistry not fully specified)	reduces RUNX2 expression to control levels	increased expression	substantial binding												
tRF-Gly-TCC mimic: RNA mimic, sequence GCGUUGGUGGUAUAGUGGUGAGCAUAGCUGCC (listed as RNA, chemistry not given here)	reduced to the same level of expression as control tissue			more than two-fold decrease in nuclear area	low cancer cell number, shrunken nuclei and visible changes to morphology	215±16.8	remains at a reduced expression	increases further	lost	greatly reduced	greatly reduced	reduces to be consistent with control tissues			
O=C(O)C1C2C=CC(C2)C1C(=O)Nc1ccc(Cl)c(Cl)c1 (stereo not shown) [CADD522, 3-(N-(3,4-dichlorophenyl)carbamoyl)-5-norbornene-2-carboxylic acid]													about 70%	about 30%	significant reduction of cancer cell number
